These results are taken from patent US8901118B2, “Compounds and methods for kinase modulation, and indications therefor” (Plexxikon Inc., priority 2010, dated 2014).

One assay concerns the target CYP3A4(BFC) (Homo sapiens, UniProt P08684). The assay is described as follows: CYP3A4(BFC) inhibition. It is filed as in vitro ADME. To be noted: CYP3A4, substrate BFC; read-out: Cyp IC50 3A4(BFC). As for the experimental part: CYP (Cytochrome P450) enzymes are the major drug metabolizing enzymes present in the liver. The inhibition of CYP enzyme activity (IC50) for each of CYP1A2, CYP2C19, CYP2C9, CYP2D6, CYP3A4(BFC) and CYP3A4(BQ) is determined for compounds, where inhibition of metabolism of a known substrate leads to a decrease in the fluorescence of the metabolized product. The fluorescence of the product is monitored as a function of compound concentration. Compounds are dissolved in DMSO to a concentration of 100 mM. These are diluted 1 μL into 82 μL of acetonitrile. An 11 μL aliquot of this solution is then added to 204 μL of cofactor mix (1.3% NADPH Regeneration system Solution A, 1.04% NADPH Regeneration system Solution B from BD Biosciences, 5% acetonitrile and 0.05% DMSO). These are then serially diluted 1:1 (160 μL to 160 μL co-factor mix) for a total of 10 points. A 10 μL aliquot of this final mixture is dispensed into 384 well assay plates and incubated for 10 minutes at 37° C. […] Assay plates are incubated at 37° C. (CYP1A2-15 min; CYP2C9-45 min; CYP2C19, 2D6 and 3A4-30 min) and read in a Tecan Safire 2 plate reader (CYP1A2, 2C19 and 3A4 409 ex/460 em; CYP2C9 and 2D6 409 ex/530 em). The signal versus compound concentration is used to determine the IC50. The enzymes and substrates for this assay are obtained from BD Biosciences.

For the next assay, the target named is T1, BCR-NTRK1 BaF3 cells (Homo sapiens, UniProt P04629).
T1 construct: fused on or other part: P11274 (Breakpoint cluster region protein)
In words: BaF3 BCR-NTRK1 cell proliferation assay (ATPlite). It is filed as cell-based. To be noted: read-out: Inhibition of Cell Proliferation IC50, BCR/BaF3 TrkA. The procedure:
(§1) Compounds are assessed in a variety of cell based assays. For example BaF3 cells engineered with any of BCR-FMS, BCR-KIT, BCR-FLT3, BCR-NTRK1, BCR-NTRK2, and BCR-NTRK3, are used in cell proliferation assays to assess inhibitory activity of Fms, Kit, Flt-3, TrkA, TrkB, and TrkC, respectively. An MV-4-11 (leukemia) cell proliferation assay is used to assess inhibitory activity in Flt-3, and SKNSH (human neuroblastoma) cell proliferation assay is used to assess efficacy of Fms/Trk inhibitors. Additional cells may be assayed similarly to assess the efficacy of Fms/Trk inhibitors, such as MiaPaCa (human pancreatic cancer) and Capan-1 (human pancreatic carcinoma) cells. Reagent and assay conditions are as follows: • BaF3 cells: • Maintained in RPMI containing 10% FBS, 1% PenStrep, 1% NEAA, and 1% L-Glutamine, supplemented with 1 mg/mL G418 and 5% WEHI-CM (or recombinant murine IL-3). • Confluent cells are split 1:50 to 1:100 every 3-4 days. • MV-4-11 cells: • Maintained in Iscove's Modified Dulbecco's Medium containing 10% FBS. • Confluent cells are split 1:4 every 3-4 days. • SKNSH cells: RPMI containing 10% FBS. On day 1, cells are counted, then centrifuged in a conical tube for 5 minutes at 1000 rpm. The supernatant is removed and cells are re-suspended as follows: • BaF3: resuspend in growth media +1 mg/mL G418 (without WEHFIL-3) to 2×10^5 cells/mL. • MV-4-11: resuspend in growth media to 5×10^5 cells/mL. • SKNSH: resuspend in growth media to 2×10^4 cells/mL. The cells are plated (50 μL, 150 μL for SKNSH cells) in each well of a 96-well dish (Corning 3610) and incubated at 37° C. in 5% CO2 overnight, cells plated to a final concentration of cells as follows: • BaF3: 10,000 cells per well. • MV-4-11: 25,000 cells per well. • SKNSH: 3,000 cells per well. On day 2, compound at a maximum concentration of 5 mM is serially diluted 1:3 for a total of 8 point titration with DMSO as a control. A 1 μL aliquot of each dilution point is added to 249 μL growth media and 50 μL is added to a well containing cells, providing 10 μM compound for the maximum concentration point. The cells are incubated for 3 days at 37° C. in 5% CO2. For SKNSH cells, a 0.75 μL aliquot of appropriate dilution in DMSO is added to 150 μL of cells. On day 5, ATPlite 1 step Luminescence Assay System (Perkin Elmer #6016739) is brought to room temperature along with the cell cultures. ATPlite is added to each well as follows: • BaF3: 25 μL per well. • MV-4-11: 40 μL per well. • SKNSH: 20 μL per well. The cells are incubated at room temperature for 10 minutes, then luminescence is read on Safire reader. The measured luminescence correlates directly with cell number, such that the reading as a function of compound concentration is used to determine the IC50 value.
(§2) It is understood that the results of these assays may vary as assay conditions are varied. Inhibition levels determined under the conditions described herein represent a relative activity for the compounds tested under the specific conditions employed. The cell based assays are likely to show variability due to the complexity of the system and the sensitivity thereof to any changes in the assay conditions. […] Results for compounds that are tested and show substantially no inhibition below the highest tested concentration are represented as “-” in the tables below. In some instances, the compounds were not tested in all of the assays, or assay results were not valid, as indicated by NA in the tables below.

A further assay addresses T2, BCR-NTRK3 BaF3 cells (Homo sapiens, UniProt Q16288).
T2 construct: fused on or other part: P11274 (Breakpoint cluster region protein)
The assay is described as follows: BaF3 BCR-NTRK3 cell proliferation assay (ATPlite). It is filed as cell-based. The conditions noted are these: read-out: Inhibition of Cell Proliferation IC50, BCR/BaF3 TrkC. The procedure: as §1, §2
For orientation: In ATP-based viability assays light output follows the ATP content of the culture.

A further assay addresses T3, BCR-KIT BaF3 cells (Homo sapiens, UniProt P10721).
T3 construct: fused on or other part: P11274 (Breakpoint cluster region protein)
The assay is described as follows: BaF3 BCR-KIT cell proliferation assay (ATPlite). The conditions noted are these: read-out: Inhibition of Cell Proliferation IC50, BCR/BaF3 Kit. It is filed as cell-based. As for the experimental part: as §1, §2

Structures are written as SMILES.

T3 sequence (P10721 589-937): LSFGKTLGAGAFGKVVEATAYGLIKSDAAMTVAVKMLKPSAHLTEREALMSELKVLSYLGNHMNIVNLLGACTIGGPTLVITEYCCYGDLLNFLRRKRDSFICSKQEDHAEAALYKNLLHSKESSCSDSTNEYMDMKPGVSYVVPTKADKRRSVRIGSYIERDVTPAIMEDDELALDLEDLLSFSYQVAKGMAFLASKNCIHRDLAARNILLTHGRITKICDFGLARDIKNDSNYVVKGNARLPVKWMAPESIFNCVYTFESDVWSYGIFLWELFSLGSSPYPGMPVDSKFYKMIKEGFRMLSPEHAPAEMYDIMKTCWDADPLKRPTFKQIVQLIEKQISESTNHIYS
Chain of CYP3A4(BFC) (P08684 whole entry): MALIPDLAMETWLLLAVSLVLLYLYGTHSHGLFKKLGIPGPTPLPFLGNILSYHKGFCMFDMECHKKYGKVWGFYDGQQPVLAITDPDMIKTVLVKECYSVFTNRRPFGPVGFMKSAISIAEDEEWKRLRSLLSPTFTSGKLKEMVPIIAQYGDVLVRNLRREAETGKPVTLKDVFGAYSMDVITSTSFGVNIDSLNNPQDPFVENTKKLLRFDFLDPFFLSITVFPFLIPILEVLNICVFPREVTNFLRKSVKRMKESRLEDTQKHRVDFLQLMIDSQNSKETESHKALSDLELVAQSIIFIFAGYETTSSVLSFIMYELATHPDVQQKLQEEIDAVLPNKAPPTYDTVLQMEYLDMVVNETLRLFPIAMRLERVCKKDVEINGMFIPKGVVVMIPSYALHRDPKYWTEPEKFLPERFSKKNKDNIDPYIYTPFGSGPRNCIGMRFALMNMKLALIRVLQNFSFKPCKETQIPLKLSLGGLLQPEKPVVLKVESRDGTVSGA
T1 sequence (P04629 510-781): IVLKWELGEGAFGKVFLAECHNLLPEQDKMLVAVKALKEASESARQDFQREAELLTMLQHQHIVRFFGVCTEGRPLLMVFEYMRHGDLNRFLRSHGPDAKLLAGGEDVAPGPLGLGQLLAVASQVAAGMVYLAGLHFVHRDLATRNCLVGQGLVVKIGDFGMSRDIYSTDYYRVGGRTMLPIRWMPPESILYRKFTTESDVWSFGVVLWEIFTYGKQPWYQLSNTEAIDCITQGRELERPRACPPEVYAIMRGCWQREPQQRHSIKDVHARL
T2 sequence (Q16288 whole entry, the tested form may be a part): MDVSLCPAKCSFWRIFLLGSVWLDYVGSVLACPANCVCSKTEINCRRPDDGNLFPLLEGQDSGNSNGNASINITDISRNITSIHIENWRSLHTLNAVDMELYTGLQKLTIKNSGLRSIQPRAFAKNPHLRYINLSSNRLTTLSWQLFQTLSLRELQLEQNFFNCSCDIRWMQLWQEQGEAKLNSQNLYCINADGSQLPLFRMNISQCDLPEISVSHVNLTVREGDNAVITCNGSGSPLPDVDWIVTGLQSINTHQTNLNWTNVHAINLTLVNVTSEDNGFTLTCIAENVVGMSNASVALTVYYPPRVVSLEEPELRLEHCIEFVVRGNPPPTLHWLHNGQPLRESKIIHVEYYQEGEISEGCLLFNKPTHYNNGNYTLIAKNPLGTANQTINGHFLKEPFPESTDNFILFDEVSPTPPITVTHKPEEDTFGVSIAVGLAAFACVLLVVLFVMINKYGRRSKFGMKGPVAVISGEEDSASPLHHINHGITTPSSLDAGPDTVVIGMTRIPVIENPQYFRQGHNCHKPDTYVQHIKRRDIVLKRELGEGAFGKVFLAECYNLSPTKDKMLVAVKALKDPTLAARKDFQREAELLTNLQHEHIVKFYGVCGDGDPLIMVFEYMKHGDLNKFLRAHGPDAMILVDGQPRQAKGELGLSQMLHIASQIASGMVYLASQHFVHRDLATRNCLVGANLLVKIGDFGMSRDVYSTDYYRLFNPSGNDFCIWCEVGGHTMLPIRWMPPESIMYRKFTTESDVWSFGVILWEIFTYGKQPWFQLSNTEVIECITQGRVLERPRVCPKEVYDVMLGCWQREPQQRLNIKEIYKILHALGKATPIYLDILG

Regarding `CC1CCC(Nc2ncc(Cc3c[nH]c4ncc(Cl)cc34)cn2)CC1` (centres unmarked) [Compound P-3009, [5-(5-Chloro-1H-pyrrolo[2,3-b]pyridin-3-ylmethyl)-pyrimidin-2-yl]-(4-methyl-cyclohexyl)-amine], the IC50 was 5000 to 10000 nM at CYP3A4(BFC), > 10000 nM on BCR-NTRK1 BaF3 cells, > 10000 nM at BCR-NTRK3 BaF3 cells and > 1000 nM at BCR-KIT BaF3 cells.

Turning to `Fc1ccccc1Nc1ncc(Cc2c[nH]c3ncc(Cl)cc23)cn1` [Compound P-3014, [5-(5-Chloro-1H-pyrrolo[2,3-b]pyridin-3-ylmethyl)-pyrimidin-2-yl]-(2-fluoro-phenyl)-amine], the IC50 at BCR-NTRK1 BaF3 cells is > 10000 nM; on BCR-NTRK3 BaF3 cells, > 10000 nM; on BCR-KIT BaF3 cells, > 1000 nM.

For the compound `Clc1cnc2[nH]cc(Cc3cnc(Nc4ccccc4Cl)nc3)c2c1` [Compound P-3015, (2-Chloro-phenyl)-[5-(5-chloro-1H-pyrrolo[2,3-b]pyridin-3-ylmethyl)-pyrimidin-2-yl]-amine], the IC50 at BCR-NTRK1 BaF3 cells was > 10000 nM; on BCR-NTRK3 BaF3 cells, > 10000 nM; at BCR-KIT BaF3 cells, > 1000 nM.

`CNc1ncnc2[nH]cc(C(=O)c3ccc(Nc4ccc(OC)nc4)nc3OC)c12` [Compound P-4085, [2-methoxy-6-[(6-methoxy-3-pyridyl)amino]-3-pyridyl]-[4-(methylamino)-7H-pyrrolo[2,3-d]pyrimidin-5-yl]methanone]: the figures for the IC50 on BCR-NTRK1 BaF3 cells, on BCR-NTRK3 BaF3 cells and on BCR-KIT BaF3 cells were < 1000 nM, < 100 nM and > 1000 nM, respectively.

With `CCc1ccc(Nc2ccc(C(=O)c3c[nH]c4ncnc(Nc5ccc(C)nc5)c34)c(F)n2)cn1` [Compound P-4086, [6-[(6-ethyl-3-pyridyl)amino]-2-fluoro-3-pyridyl]-[4-[(6-methyl-3-pyridyl)amino]-7H-pyrrolo[2,3-d]pyrimidin-5-yl]methanone], the IC50 on BCR-NTRK1 BaF3 cells was < 10 nM.

As for `CCc1ccc(Nc2ccc(C(=O)c3c[nH]c4ncnc(NC5CCC(F)(F)CC5)c34)c(F)n2)cn1` [Compound P-4096, [4-[(4,4-difluorocyclohexyl)amino]-7H-pyrrolo[2,3-d]pyrimidin-5-yl]-[6-[(6-ethyl-3-pyridyl)amino]-2-fluoro-3-pyridyl]methanone], the IC50 was > 10000 nM at CYP3A4(BFC), < 10 nM on BCR-NTRK1 BaF3 cells and < 1000 nM at BCR-KIT BaF3 cells.

As to `CCc1ccc(Nc2ccc(C(=O)c3c[nH]c4ncnc(N[C@@H](C)c5ccc(F)cc5)c34)c(F)n2)cn1` [Compound P-4097, [6-[(6-ethyl-3-pyridyl)amino]-2-fluoro-3-pyridyl]-[4-[[(1S)-1-(4-fluorophenyl)ethyl]amino]-7H-pyrrolo[2,3-d]pyrimidin-5-yl]methanone], the IC50 is > 10000 nM on CYP3A4(BFC), < 100 nM on BCR-NTRK1 BaF3 cells and < 1000 nM on BCR-KIT BaF3 cells.

Turning to `CCc1ccc(Nc2ccc(C(=O)c3c[nH]c4ncnc(NCCCOC)c34)c(F)n2)cn1` [Compound P-4098, [6-[(6-ethyl-3-pyridyl)amino]-2-fluoro-3-pyridyl]-[4-(3-methoxypropylamino)-7H-pyrrolo[2,3-d]pyrimidin-5-yl]methanone], the IC50 on CYP3A4(BFC) is > 10000 nM; at BCR-NTRK1 BaF3 cells, < 10 nM; on BCR-KIT BaF3 cells, < 100 nM.

Take `CCc1ccc(Nc2ccc(C(=O)c3c[nH]c4ncnc(NC5CCCC5)c34)c(F)n2)cn1` [Compound P-4099, [4-(cyclopentylamino)-7H-pyrrolo[2,3-d]pyrimidin-5-yl]-[6-[(6-ethyl-3-pyridyl)amino]-2-fluoro-3-pyridyl]methanone]: the IC50 at CYP3A4(BFC) was > 10000 nM; at BCR-NTRK1 BaF3 cells, < 10 nM; at BCR-KIT BaF3 cells it was < 100 nM.

Turning to `CCCCNc1ncnc2[nH]cc(C(=O)c3ccc(Nc4ccc(CC)nc4)nc3F)c12` [Compound P-4100, [4-(butylamino)-7H-pyrrolo[2,3-d]pyrimidin-5-yl]-[6-[(6-ethyl-3-pyridyl)amino]-2-fluoro-3-pyridyl]methanone], the IC50 is > 10000 nM at CYP3A4(BFC), < 10 nM on BCR-NTRK1 BaF3 cells and < 1000 nM on BCR-KIT BaF3 cells.

Regarding `CC(C)Nc1ncnc2[nH]cc(C(=O)c3ccc(NC4CCCCC4)nc3F)c12` [Compound P-4101, [6-(cyclohexylamino)-2-fluoro-3-pyridyl]-[4-(isopropylamino)-7H-pyrrolo[2,3-d]pyrimidin-5-yl]methanone], the IC50 on CYP3A4(BFC) was > 10000 nM; at BCR-NTRK1 BaF3 cells it was < 100 nM; on BCR-KIT BaF3 cells, < 1000 nM.

Consider `CNc1ncnc2[nH]cc(C(=O)c3ccc(NC4CCCCC4)nc3F)c12` [Compound P-4102, [6-(cyclohexylamino)-2-fluoro-3-pyridyl]-[4-(methylamino)-7H-pyrrolo[2,3-d]pyrimidin-5-yl]methanone], for which the IC50 was > 10000 nM at CYP3A4(BFC), < 1000 nM at BCR-NTRK1 BaF3 cells and < 1000 nM at BCR-KIT BaF3 cells.

On to `CC(C)Nc1ncnc2[nH]cc(C(=O)c3ccc(NC4CCCCC4)nc3Cl)c12` [Compound P-4109, [2-chloro-6-(cyclohexylamino)-3-pyridyl]-[4-(isopropylamino)-7H-pyrrolo[2,3-d]pyrimidin-5-yl]methanone], for which the IC50 on CYP3A4(BFC) is > 10000 nM; at BCR-NTRK1 BaF3 cells, < 1000 nM; on BCR-KIT BaF3 cells, < 1000 nM.

In the case of `CNc1ncnc2[nH]cc(C(=O)c3ccc(NC4CCCCC4)nc3Cl)c12` [Compound P-4110, [2-chloro-6-(cyclohexylamino)-3-pyridyl]-[4-(methylamino)-7H-pyrrolo[2,3-d]pyrimidin-5-yl]methanone], the IC50 at CYP3A4(BFC) was > 10000 nM; on BCR-NTRK1 BaF3 cells, > 1000 nM; at BCR-KIT BaF3 cells, < 1000 nM.

In the case of `Cc1ccc(Nc2ccc(C(=O)c3c[nH]c4ncnc(NCC5CC5)c34)c(F)n2)cn1` [Compound P-4113, [4-(cyclopropylmethylamino)-7H-pyrrolo[2,3-d]pyrimidin-5-yl]-[2-fluoro-6-[(6-methyl-3-pyridyl)amino]-3-pyridyl]methanone], the figures for the IC50 at CYP3A4(BFC), on BCR-NTRK1 BaF3 cells and at BCR-KIT BaF3 cells were > 10000 nM, < 100 nM and < 1000 nM, respectively.

As for `CCCNc1ncnc2[nH]cc(C(=O)c3ccc(Nc4ccc(C)nc4)nc3F)c12` [Compound P-4114, [2-fluoro-6-[(6-methyl-3-pyridyl)amino]-3-pyridyl]-[4-(propylamino)-7H-pyrrolo[2,3-d]pyrimidin-5-yl]methanone], the IC50 on CYP3A4(BFC) is > 10000 nM; at BCR-NTRK1 BaF3 cells, < 10 nM; on BCR-KIT BaF3 cells, < 1000 nM.
